According to ChEMBL document CHEMBL5465560, “Selectivity Literature for EUbOPEN Chemogenomic Library” (2024):

Key:
[1] = target: T1, Serine/threonine-protein kinase PLK4 (Homo sapiens) (UniProt O00444); test: Selectivity interaction (Kinase panel (DSF assay)) EUB0001558a PLK4
T1 sequence (whole entry): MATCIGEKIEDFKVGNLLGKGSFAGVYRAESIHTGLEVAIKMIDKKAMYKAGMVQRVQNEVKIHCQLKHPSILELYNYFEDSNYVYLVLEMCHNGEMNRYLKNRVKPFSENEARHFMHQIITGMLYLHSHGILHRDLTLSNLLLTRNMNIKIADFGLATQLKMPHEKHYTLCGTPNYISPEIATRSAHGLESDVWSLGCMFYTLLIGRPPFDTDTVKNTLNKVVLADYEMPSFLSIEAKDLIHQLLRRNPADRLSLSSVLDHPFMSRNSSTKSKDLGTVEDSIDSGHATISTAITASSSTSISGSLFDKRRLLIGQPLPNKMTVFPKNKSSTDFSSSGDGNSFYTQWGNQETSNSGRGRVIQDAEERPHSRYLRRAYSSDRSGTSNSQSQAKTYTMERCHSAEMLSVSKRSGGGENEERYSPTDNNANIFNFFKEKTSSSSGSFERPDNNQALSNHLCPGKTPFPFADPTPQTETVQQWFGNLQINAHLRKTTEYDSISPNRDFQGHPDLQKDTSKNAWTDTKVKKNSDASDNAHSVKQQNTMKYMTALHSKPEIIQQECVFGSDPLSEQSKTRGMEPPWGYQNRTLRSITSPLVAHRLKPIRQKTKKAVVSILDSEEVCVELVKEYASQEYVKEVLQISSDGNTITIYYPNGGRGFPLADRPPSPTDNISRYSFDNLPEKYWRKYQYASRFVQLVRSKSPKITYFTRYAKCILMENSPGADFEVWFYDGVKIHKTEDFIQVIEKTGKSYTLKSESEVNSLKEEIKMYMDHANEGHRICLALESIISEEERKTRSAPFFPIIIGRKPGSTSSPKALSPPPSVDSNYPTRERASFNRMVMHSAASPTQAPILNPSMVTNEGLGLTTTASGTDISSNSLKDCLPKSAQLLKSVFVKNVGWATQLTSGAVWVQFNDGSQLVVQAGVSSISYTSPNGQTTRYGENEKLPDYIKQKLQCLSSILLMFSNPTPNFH

[2] = target: T2, Mitogen-activated protein kinase kinase kinase 7 (Homo sapiens) (UniProt O43318); test: Selectivity interaction (KinomeScan (DiscoverX)) EUB0000595a MAP3K7; details: at 10 µM
T2 sequence (whole entry): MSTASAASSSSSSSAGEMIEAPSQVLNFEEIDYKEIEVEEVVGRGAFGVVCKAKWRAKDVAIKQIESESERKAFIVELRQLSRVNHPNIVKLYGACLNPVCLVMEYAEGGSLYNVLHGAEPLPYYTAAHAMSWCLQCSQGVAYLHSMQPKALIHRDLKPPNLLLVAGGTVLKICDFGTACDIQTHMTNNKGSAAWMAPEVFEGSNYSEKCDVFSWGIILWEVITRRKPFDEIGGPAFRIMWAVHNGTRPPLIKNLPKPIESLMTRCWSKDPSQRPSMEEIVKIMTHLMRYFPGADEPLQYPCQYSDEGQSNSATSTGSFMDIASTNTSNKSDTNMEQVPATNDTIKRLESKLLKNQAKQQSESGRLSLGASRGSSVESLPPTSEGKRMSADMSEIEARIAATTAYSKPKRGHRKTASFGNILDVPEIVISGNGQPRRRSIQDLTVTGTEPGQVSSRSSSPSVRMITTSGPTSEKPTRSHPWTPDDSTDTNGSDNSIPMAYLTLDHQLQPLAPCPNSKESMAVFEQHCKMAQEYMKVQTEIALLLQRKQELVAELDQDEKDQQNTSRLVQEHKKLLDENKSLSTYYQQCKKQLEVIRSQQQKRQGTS

[3] = target: T3, Ephrin type-B receptor 3 (Homo sapiens) (UniProt P54753); test: Selectivity interaction (KinomeScan (DiscoverX)) EUB0000618a EPHB3; details: at 10 µM
T3 sequence (whole entry): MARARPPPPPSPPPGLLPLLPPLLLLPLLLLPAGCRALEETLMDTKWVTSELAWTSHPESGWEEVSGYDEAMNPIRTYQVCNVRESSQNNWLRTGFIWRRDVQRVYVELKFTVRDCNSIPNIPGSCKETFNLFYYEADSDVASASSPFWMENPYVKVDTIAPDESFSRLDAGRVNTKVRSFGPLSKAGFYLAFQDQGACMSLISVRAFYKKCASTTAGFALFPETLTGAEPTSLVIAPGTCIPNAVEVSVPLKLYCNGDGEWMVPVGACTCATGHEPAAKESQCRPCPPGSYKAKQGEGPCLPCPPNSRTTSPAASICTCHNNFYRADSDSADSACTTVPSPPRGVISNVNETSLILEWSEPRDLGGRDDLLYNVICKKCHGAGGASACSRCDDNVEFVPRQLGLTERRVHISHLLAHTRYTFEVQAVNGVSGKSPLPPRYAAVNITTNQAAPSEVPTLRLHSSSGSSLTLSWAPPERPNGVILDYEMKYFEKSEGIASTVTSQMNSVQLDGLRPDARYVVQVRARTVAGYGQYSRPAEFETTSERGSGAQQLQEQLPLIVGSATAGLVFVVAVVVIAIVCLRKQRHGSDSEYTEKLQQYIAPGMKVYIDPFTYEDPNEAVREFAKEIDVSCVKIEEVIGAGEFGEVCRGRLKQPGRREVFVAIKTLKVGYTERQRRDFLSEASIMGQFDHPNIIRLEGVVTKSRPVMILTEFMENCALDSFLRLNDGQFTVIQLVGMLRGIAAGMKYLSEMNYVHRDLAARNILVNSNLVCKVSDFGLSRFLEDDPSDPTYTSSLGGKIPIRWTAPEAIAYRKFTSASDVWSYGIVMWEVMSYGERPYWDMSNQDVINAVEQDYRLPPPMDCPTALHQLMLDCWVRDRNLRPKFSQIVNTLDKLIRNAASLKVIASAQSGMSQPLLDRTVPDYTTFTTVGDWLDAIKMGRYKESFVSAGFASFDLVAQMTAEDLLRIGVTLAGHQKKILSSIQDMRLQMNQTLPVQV

Q: How did the dTM [1] turn out when `CC(C)(O)[C@H](F)CN1Cc2cc(NC(=O)c3cnn4cccnc34)c(N3CCOCC3)cc2C1=O` was run?
A: 5.2 K

Q: Which % of control [2] does the source give for `COCC(=O)NC/C=C/c1ccc2ncnc(Nc3ccc(Oc4ccc(C)nc4)c(C)c3)c2c1` [CP-724714] here?
A: 100%

Q: Which % of control [3] does the source give for `O[C@H]1CC[C@H](Nc2ncc3nc(Nc4c(F)cc(F)cc4F)n([C@H]4CCOC4)c3n2)CC1` here?
A: 84%
